Laboratory results from patent US20090054486A1, “POLYMORPHIC FORM XVI OF FEXOFENADINE HYDROCHLORIDE” (Teva Pharmaceuticals USA, Inc., priority 2002, published 2009).
Structures can show the parent of a compound that is named as a salt.

Test: Storage stability against transformation to other crystalline forms
Assay type: physicochemical
Procedure: Fexofenadine hydrochloride Form XVI is substantially stable during storage. Fexofenadine hydrochloride Form XVI is stable against transformation to other crystalline forms upon storage at relative humidity of up to about 100% for at least about 1 week, and storage at about 40° C. and about 75% relative humidity for at least about 6 months. The conversion is preferably less than about 5%, more preferably less than about 2% by weight.
In another aspect, the present invention provides for processes for preparation of fexofenadine hydrochloride Form XVI, which allow preparing fexofenadine HCl form XVI substantially free of other polymorphic forms of fexofenadine HCl, including amorphous form. As used herein, “substantially free” refers to less than about 5% on a weight basis, preferably less than about 2%, weight of polymorphic forms other than Form XVI compared to the weight of all the polymorphic forms, including Form XVI. A suitable method for determining the presence of other polymorphic forms is with X-Ray Powder diffraction.

Compound: CC(C)(C(=O)O)c1ccc(C(O)CCCN2CCC(C(O)(c3ccccc3)c3ccccc3)CC2)cc1 (stereo not drawn) [Fexofenadine hydrochloride Form XVI, 4-[4-[4-(hydroxydiphenylmethyl)-1-piperidinyl]-1-hydroxybutyl]-α,α-dimethylbenzeneacetic acid]
- time stable against transformation to other crystalline forms upon storage (storage at about 40° C. and about 75% relative humidity): at least 6 months
- time stable against transformation to other crystalline forms upon storage (storage at relative humidity of up to about 100%): at least 1 week
